The record followed here is patent publication US20240255464A1 (priority 2021, published 2024).

The assay deals with HL-1 cells. It is filed as cell-based.
Setting [1] is: HL-1 cells, 100 nM nifedipine in Tyrode's solution, 60 s.
Setting [2] is: HL-1 cells, 100 nM nifedipine in Tyrode's solution, 120 s.

“And” between values parts separate entries of the source, which are not always exact repeats. Equal entries are not always repeated. Where two headings read alike, the source gives them in different places.

Take `COC(=O)C1=C(C)NC(C)=C(C(=O)OC)C1c1ccccc1[N+](=O)[O-]` [Nifedipine, nifedipine]: under setting [1], the APD50 stood at 106.0 ms, the APD90 was 172.9 ms, the Amplitude was determined as 102.9 mV and the “Refractory Period” value amounted to 964.8 ms. For the same compound, under setting [2], the APD50 amounted to 59.1 ms, the APD90 amounted to 90.1 ms, the Amplitude was determined as 88.9 mV and the “Refractory Period” value is given as 1022.3 ms.

For `NC1=N[C@H](O)[C@H]2[C@H]3O[C@]4(O)O[C@@H]([C@@H](O)[C@@]2(N1)[C@@H]4O)[C@]3(O)CO` [TTX, tetrodotoxin], the APD50 is 81.2 ms and 65.5 ms; the APD90 was 166.6 ms and 141.8 ms; the Amplitude was 113.4 mV and 91.9 mV; the “Refractory Period” value is 948.4 ms and 958.6 ms. In addition, the “effect on action potential amplitude” value is reported as “lowers the amplitude”, the “effect on action potential duration at 50% or 90% repolarization” value is given as “reduces the action potential duration”, the “effect on repolarization duration” value is listed as “shortening the repolarization duration” and the “effect on spike amplitude” value is recorded as “reducing the spike amplitude”. In addition, the “reversibility of the effect” value is given as “reversible”.
